Where “and” joins values, the source holds several entries; their conditions need not be identical. Equal values may be shown once.
Conditions: Liquid, Vibrating tube method

CCCCCCCC(=O)OCC(COC(=O)CCCCCCC)(COC(=O)CCCCCCC)COC(=O)CCCCCCC [pentaerythritol tetraoctanoate]
Conditions | mass density
303.14 K, 4098.2 kPa | 957.9 kg/m3
303.14 K, 4118.3 kPa | 957.9 kg/m3
303.14 K, 4135.4 kPa | 957.9 kg/m3
303.14 K, 4156 kPa | 957.9 kg/m3
303.14 K, 4172.8 kPa | 957.9 kg/m3
303.14 K, 4194.3 kPa | 958 kg/m3
303.14 K, 4211.9 kPa | 958 kg/m3
303.14 K, 4232.9 kPa | 958.1 kg/m3
303.14 K, 4250 kPa | 958 kg/m3
303.14 K, 4271.5 kPa | 958.1 kg/m3
303.14 K, 4289.7 kPa | 958 kg/m3
303.14 K, 4414.6 kPa | 958.1 kg/m3
303.14 K, 4495.8 kPa | 958.1 kg/m3
303.14 K, 4506.9 kPa | 958.2 kg/m3
303.14 K, 4516.1 kPa | 958.2 kg/m3
303.14 K, 4528.5 kPa | 958.3 kg/m3
303.14 K, 4565.1 kPa | 958.2 kg/m3
303.14 K, 4883.3 kPa | 958.4 kg/m3
303.14 K, 4909.3 kPa | 958.4 kg/m3
303.14 K, 4931.2 kPa | 958.5 kg/m3
303.14 K, 4958.7 kPa | 958.5 kg/m3
303.14 K, 5309.4 kPa | 958.7 kg/m3
303.14 K, 5618.4 kPa | 958.8 kg/m3
303.14 K, 5650.1 kPa | 958.8 kg/m3
303.14 K, 5689.5 kPa | 958.9 kg/m3
303.14 K, 5713.9 kPa | 959 kg/m3
303.14 K, 5742.8 kPa | 959 kg/m3
303.14 K, 6420.5 kPa | 959.2 kg/m3
303.14 K, 6514.5 kPa | 959.4 kg/m3
303.14 K, 6535.9 kPa | 959.5 kg/m3
303.14 K, 6561.5 kPa | 959.4 kg/m3
303.14 K, 6885.2 kPa | 959.7 kg/m3
303.14 K, 6937.5 kPa | 959.7 kg/m3
303.14 K, 6965.9 kPa | 959.7 kg/m3
303.14 K, 6989.7 kPa | 959.7 kg/m3
303.14 K, 7018.5 kPa | 959.7 kg/m3
303.14 K, 7042.7 kPa | 959.8 kg/m3
303.14 K, 7072.4 kPa | 959.8 kg/m3
303.14 K, 7331.7 kPa | 960 kg/m3
303.14 K, 7358.2 kPa | 959.8 kg/m3
303.14 K, 7974.8 kPa | 960.4 kg/m3
303.14 K, 8046.4 kPa | 960.3 kg/m3
303.14 K, 8085.7 kPa | 960.5 kg/m3
303.14 K, 8120 kPa | 960.5 kg/m3
303.14 K, 8830.9 kPa | 960.7 kg/m3
303.14 K, 9313 kPa | 961.2 kg/m3
303.14 K, 9339.7 kPa | 961.2 kg/m3
303.14 K, 11022 kPa | 962.1 kg/m3
303.14 K, 11048 kPa | 962.2 kg/m3
303.14 K, 13652 kPa | 963.7 kg/m3
303.14 K, 13735 kPa | 963.7 kg/m3
303.14 K, 13777 kPa | 963.7 kg/m3
303.14 K, 13855 kPa | 963.8 kg/m3
303.14 K, 13898 kPa | 963.8 kg/m3
303.14 K, 14022 kPa | 964 kg/m3
303.15 K, 104.6 kPa | 955.3 kg/m3 and 955.4 kg/m3
303.15 K, 104.7 kPa | 955.5 kg/m3 and 955.4 kg/m3
303.15 K, 104.9 kPa | 955.4 kg/m3
303.15 K, 105.1 kPa | 955.4 kg/m3
303.15 K, 106.7 kPa | 955.3 kg/m3
303.15 K, 113.4 kPa | 955.5 kg/m3
303.15 K, 119.7 kPa | 955.5 kg/m3
303.15 K, 123.3 kPa | 955.5 kg/m3
303.15 K, 127.9 kPa | 955.5 kg/m3
303.15 K, 133.8 kPa | 955.5 kg/m3
303.15 K, 141.4 kPa | 955.5 kg/m3
303.15 K, 151 kPa | 955.4 kg/m3
303.15 K, 163.8 kPa | 955.4 kg/m3
303.15 K, 180.7 kPa | 955.5 kg/m3
303.15 K, 203.5 kPa | 955.6 kg/m3
303.15 K, 234.4 kPa | 955.6 kg/m3
303.15 K, 272.8 kPa | 955.5 kg/m3
303.15 K, 306.2 kPa | 955.6 kg/m3
303.15 K, 333.5 kPa | 955.7 kg/m3
303.15 K, 351.9 kPa | 955.6 kg/m3
303.15 K, 363.2 kPa | 955.6 kg/m3
303.15 K, 377.9 kPa | 955.7 kg/m3
303.15 K, 393.4 kPa | 955.6 kg/m3
303.15 K, 410.1 kPa | 955.7 kg/m3
303.15 K, 427 kPa | 955.6 kg/m3
303.15 K, 438.6 kPa | 955.6 kg/m3
303.15 K, 450.2 kPa | 955.6 kg/m3
303.15 K, 462.7 kPa | 955.6 kg/m3
303.15 K, 474.7 kPa | 955.6 kg/m3
303.15 K, 487.9 kPa | 955.7 kg/m3
303.15 K, 499.6 kPa | 955.6 kg/m3
303.15 K, 514.7 kPa | 955.8 kg/m3
303.15 K, 529.5 kPa | 955.5 kg/m3
303.15 K, 545.8 kPa | 955.7 kg/m3
303.15 K, 562.8 kPa | 955.6 kg/m3
303.15 K, 580.7 kPa | 955.7 kg/m3
303.15 K, 600.2 kPa | 955.7 kg/m3
303.15 K, 620 kPa | 955.7 kg/m3
303.15 K, 635.4 kPa | 955.8 kg/m3
303.15 K, 653.7 kPa | 955.7 kg/m3
303.15 K, 673.1 kPa | 955.8 kg/m3
303.15 K, 690.2 kPa | 955.8 kg/m3
303.15 K, 711.7 kPa | 955.8 kg/m3
303.15 K, 734 kPa | 955.8 kg/m3
303.15 K, 753.9 kPa | 955.8 kg/m3
303.15 K, 778.9 kPa | 955.8 kg/m3
303.15 K, 805.3 kPa | 955.7 kg/m3
303.15 K, 828.4 kPa | 956 kg/m3
303.15 K, 856.4 kPa | 956 kg/m3
303.15 K, 878.8 kPa | 956 kg/m3
303.15 K, 896.7 kPa | 955.9 kg/m3
303.15 K, 918.8 kPa | 955.9 kg/m3
303.15 K, 937.7 kPa | 955.8 kg/m3
303.15 K, 961.3 kPa | 955.9 kg/m3
303.15 K, 986.7 kPa | 956 kg/m3
303.15 K, 1012 kPa | 956 kg/m3
303.15 K, 1034.8 kPa | 956.1 kg/m3
303.15 K, 1062.9 kPa | 956 kg/m3
303.15 K, 1087.6 kPa | 956.1 kg/m3
303.15 K, 1118 kPa | 956.1 kg/m3
303.15 K, 1149.9 kPa | 956 kg/m3
303.15 K, 1183.3 kPa | 956 kg/m3
303.15 K, 1212.4 kPa | 956.1 kg/m3
303.15 K, 1248.7 kPa | 956.1 kg/m3
303.15 K, 1287.1 kPa | 956.2 kg/m3
303.15 K, 1320.4 kPa | 956.1 kg/m3
303.15 K, 1362.3 kPa | 956.1 kg/m3
303.15 K, 1407.7 kPa | 956.3 kg/m3
303.15 K, 1447.7 kPa | 956.2 kg/m3
303.15 K, 1500.9 kPa | 956.2 kg/m3
303.15 K, 1544.9 kPa | 956.4 kg/m3
303.15 K, 1600.2 kPa | 956.4 kg/m3
303.15 K, 1657.7 kPa | 956.3 kg/m3
303.15 K, 1716.5 kPa | 956.4 kg/m3
303.15 K, 1763.5 kPa | 956.4 kg/m3
303.15 K, 1789.9 kPa | 956.6 kg/m3
303.15 K, 1809.7 kPa | 956.6 kg/m3
303.15 K, 1826.2 kPa | 956.5 kg/m3
303.15 K, 1847 kPa | 956.6 kg/m3
303.15 K, 1864.2 kPa | 956.5 kg/m3
303.15 K, 1884.7 kPa | 956.4 kg/m3
303.15 K, 1906.9 kPa | 956.5 kg/m3
303.15 K, 1925.8 kPa | 956.5 kg/m3
303.15 K, 1948 kPa | 956.5 kg/m3
303.15 K, 1967.5 kPa | 956.7 kg/m3
303.15 K, 1990.5 kPa | 956.6 kg/m3
303.15 K, 2013.8 kPa | 956.6 kg/m3
303.15 K, 2034.1 kPa | 956.6 kg/m3
303.15 K, 2058.5 kPa | 956.7 kg/m3
303.15 K, 2083.2 kPa | 956.6 kg/m3
303.15 K, 2104.7 kPa | 956.6 kg/m3
303.15 K, 2130.4 kPa | 956.7 kg/m3
